Assay results taken from patent publication US20220324835A1 (Nurix Therapeutics, Inc., priority 2018, published 2022).
Where two headings read alike, the source gives them in different places.

Columns and labels:
Type in all cases: cell-based
primary human NK cells = assay: NK cell activation assessed by cytokine secretion (coculture with K562 NucRed target cells); conditions: for fold induction at 0.625 µM: 0.625 μM compound; for fold induction at 2.5 µM: 2.5 μM compound
Procedure: Peripheral blood mononuclear cells (PBMC) were obtained either: 1) by using Ficoll-Paque™ (GE Healthcare) for separation of peripheral blood hematopoietic cells from buffy coats of healthy human donors; or 2) directly from LeukoPak donations. […] The cells were cultured overnight with IL-2 (60 ng/mL) at 37° C. 5% CO2. Cbl-b inhibitors were added 1 hour prior to stimulation and incubated at 37° C. 5% CO2 at a specific concentration (e.g., 10 μM, 1 μM, or 0.1 μM) with a final DMSO concentration of <0.1%. NK cells were co-cultured with target cells that were engineered to have a red nucleus (K562 NucRed) measurable by flow cytometry. […] The cells were mixed at the indicated ratios (e.g., 5:1, 1:1, or 1:5) of NK (effector cells) to K562 NucRed (target cells) for 6 hours. Cell free supernatants were collected and analyzed for cytokine secretion (e.g. TNFα, IFNγ, or MIP1β) by ELISA or Luminex multiplex kits following the manufacturer's protocol. IFNγ secretion was assessed using an R&D Systems ELISA kit (Catalog #DY285), TNFα secretion was assessed using an R&D Systems ELISA kit (Catalog #DY210), and MIP1β secretion was assessed using an R&D Systems ELISA kit (Catalog #DY271).
Readouts were reported as fold change over baseline. Baseline for this study was the measurement obtained from primary human NK effector cells cocultured with K562 NucRed target cells in the absence of a Cbl-b inhibitor. For NK cells cocultured with K562 NucRed cells, changes greater than 2.0-fold over baseline for cytokine secretion were considered a positive response (Table 10a and 10b).

primary human B cells = assay: B cell activation assay (CD69 on anti-IgM stimulated B cells); conditions: AUC of dose response curve (10 μM to 1 nM) of CD69 MFI normalized to DMSO control
Procedure: Peripheral blood mononuclear cells (PBMC) were obtained either: 1) by using Ficoll-Paque™ (GE Healthcare) for separation of peripheral blood hematopoietic cells from buffy coats of healthy human donors; or 2) directly from LeukoPak donations. Human primary B cells were isolated from the PBMCs utilizing negative selection with commercial kits following the manufacturer's protocol (StemCells Catalog #17954) to yield >95% CD20+ cells assessed by flow cytometry. Primary human B cells were plated at 0.7-1×10^5 per well in a 96-well plate with Cbl-b inhibitors over a dose ranging from 10 μM to 1 nM and incubated at 37° C. 5% CO2, with a final DMSO concentration of <0.5%. Cells were stimulated with anti-IgM for 20 hours at 37° C. 5% CO2. Surface activation markers on mature CD20^+ IgD^+ B cells were monitored by FACS using an anti-CD69 antibody (BD Biosciences).
Cbl-b inhibitors were tested to determine their ability to induce or enhance surface expression of cell surface markers on B cells (e.g., CD69), which is indicative of B cell activation.
Readouts were reported as area under curve (AUC) of the dose response curve of CD69 mean fluorescence intensity (MFI) normalized to the DMSO control. Baseline for this study was the measurement obtained from primary human B cells treated with DMSO in the presence of 2.5 μg/mL of anti-IgM-F(ab′)2. […] Compounds were ranked into bins according to their readouts as follows: A indicates ≤0.5, B indicates 0.5-1.00, C indicates 1.01-1.50, and D indicates ≥1.51.

T-cell = assay: IL-2 secretion from T-cells stimulated with anti-CD3 antibody alone (Biological Example 2); conditions: primary human total T-cells, read-out: IL-2 secretion, Anti-CD3 stimulation, fold change over baseline; for fold induction at 1 µM: 1 μM compound; for fold induction at 8 µM: 8 μM compound
[1] = K562, NK cells cocultured with K562 NucRed, 1:1 E/T, read-out: IFNγ secretion, fold change over baseline
[2] = K562, NK cells cocultured with K562 NucRed, 1:1 E/T, read-out: TNFα secretion, fold change over baseline
[3] = K562, NK cells cocultured with K562 NucRed, 1:1 E/T, 10 μM compound, read-out: IFNγ secretion, fold change over baseline
[4] = K562, NK cells cocultured with K562 NucRed, 1:1 E/T, 10 μM compound, read-out: TNFα secretion, fold change over baseline
[5] = K562, 1:1 E/T, read-out: IFNγ secretion
[6] = K562, 1:1 E/T, read-out: MIP1β secretion
[7] = K562, 1:1 E/T, read-out: TNFα secretion
[8] = K562, 1:1 E/T, 10 μM, read-out: IFNγ secretion
[9] = K562, 1:1 E/T, 10 μM, read-out: MIP1β secretion
[10] = K562, 1:1 E/T, 10 μM, read-out: TNFα secretion
[11] = K562, 5:1 E/T, read-out: IFNγ secretion
[12] = K562, 5:1 E/T, read-out: MIP1β secretion
[13] = K562, 5:1 E/T, read-out: TNFα secretion
[14] = K562, 5:1 E/T, 10 μM, read-out: IFNγ secretion
[15] = K562, 5:1 E/T, 10 μM, read-out: MIP1β secretion
[16] = K562, 5:1 E/T, 10 μM, read-out: TNFα secretion

Structure (SMILES) | fold induction at 0.625 µM (primary human NK cells; [1]) | fold induction at 0.625 µM (primary human NK cells; [2]) | fold induction at 2.5 µM (primary human NK cells; [1]) | fold induction at 2.5 µM (primary human NK cells; [2]) | fold induction at 10 µM (primary human NK cells; [3]) | fold induction at 10 µM (primary human NK cells; [4]) | CD69 MFI AUC (primary human B cells) | fold induction at 1 µM (T-cell) | fold induction at 8 µM (T-cell) | further results
C[C@H](Cc1nncn1C)c1cccc(NC(=O)c2cccc(C(F)(F)F)n2)c1 [Compound 183a, (R)-N-(3-(1-(4-methyl-4H-1,2,4-triazol-3-yl)propan-2-yl)phenyl)-6-(trifluoromethyl)picolinamide] | 2.01 to 5 | 1.01 to 2 | 2.01 to 5 | 2.01 to 5 | 2.01 to 5 | 2.01 to 5 | C (C indicates 1.01-1.50) | – | – | –
Cc1cc(C(=O)Nc2cccc([C@H](C)Cc3nncn3C)c2)nc(C2CC2)n1 [Compound 195, (R)-2-cyclopropyl-6-methyl-N-(3-(1-(4-methyl-4H-1,2,4-triazol-3-yl)propan-2-yl)phenyl)pyrimidine-4-carboxamide] | 2.01 to 5 | 1.01 to 2 | 2.01 to 5 | 2.01 to 5 | > 5 | 2.01 to 5 | D (D indicates ≥1.51) | – | – | fold induction at 1 µM (primary human NK cells; [5]): 2.01 to 5; fold induction at 1 µM (primary human NK cells; [6]): 1.01 to 2; fold induction at 1 µM (primary human NK cells; [7]): 2.01 to 5; fold induction at 10 µM (primary human NK cells; [8]): 2.01 to 5; fold induction at 10 µM (primary human NK cells; [9]): 2.01 to 5; fold induction at 10 µM (primary human NK cells; [10]): 2.01 to 5; fold induction at 1 µM (primary human NK cells; [11]): 2.01 to 5; fold induction at 1 µM (primary human NK cells; [12]): 2.01 to 5; fold induction at 1 µM (primary human NK cells; [13]): 2.01 to 5; fold induction at 10 µM (primary human NK cells; [14]): > 5; fold induction at 10 µM (primary human NK cells; [15]): 2.01 to 5; fold induction at 10 µM (primary human NK cells; [16]): > 5
C[C@H](Cc1nncn1C)c1cccc(N2Cc3c(cccc3C(F)(F)F)C2=O)c1 [Compound 255a, (R)-2-(3-(1-(4-methyl-4H-1,2,4-triazol-3-yl)propan-2-yl)phenyl)-4-(trifluoromethyl)isoindolin-1-one] | 1.01 to 2 | 1.01 to 2 | 1.01 to 2 | 1.01 to 2 | 2.01 to 5 | 2.01 to 5 | C (C indicates 1.01-1.50) | – | – | fold induction at 1 µM (primary human NK cells; [5]): 1.01 to 2; fold induction at 1 µM (primary human NK cells; [6]): < 1; fold induction at 1 µM (primary human NK cells; [7]): < 1; fold induction at 10 µM (primary human NK cells; [8]): 2.01 to 5; fold induction at 10 µM (primary human NK cells; [9]): 1.01 to 2; fold induction at 10 µM (primary human NK cells; [10]): < 1; fold induction at 1 µM (primary human NK cells; [11]): 1.01 to 2; fold induction at 1 µM (primary human NK cells; [12]): < 1; fold induction at 1 µM (primary human NK cells; [13]): < 1; fold induction at 10 µM (primary human NK cells; [14]): > 5; fold induction at 10 µM (primary human NK cells; [15]): 1.01 to 2; fold induction at 10 µM (primary human NK cells; [16]): < 1
C[C@H](Cc1nncn1C)c1cccc(NC(=O)c2n[nH]c3c2CCC3)c1 [Compound 313, (R)-N-(3-(1-(4-Methyl-4H-1,2,4-triazol-3-yl)propan-2-yl)phenyl)-1,4,5,6-tetrahydrocyclopenta[c]pyrazole-3-carboxamide] | < 1 | 1.01 to 2 | 1.01 to 2 | 1.01 to 2 | 2.01 to 5 | 1.01 to 2 | B (B indicates 0.5-1.00) | – | – | –
Cc1cc(C(=O)Nc2cccc([C@@H](C)Cc3nncn3C)c2)nc(C2CC2)n1 [Compound 325, (S)-2-Cyclopropyl-6-methyl-N-(3-(1-(4-methyl-4H-1,2,4-triazol-3-yl)propan-2-yl)phenyl)pyrimidine-4-carboxamide] | 1.01 to 2 | < 1 | 1.01 to 2 | < 1 | 2.01 to 5 | 1.01 to 2 | C (C indicates 1.01-1.50) | – | – | –
Cn1cnnc1CC1(c2cccc(NC(=O)c3nc4c(C(F)(F)F)cccc4[nH]3)c2)COC1 [Compound 335, N-(3-{3-[(4-methyl-1,2,4-triazol-3-yl)methyl]oxetan-3-yl}phenyl)-4-(trifluoromethyl)-1H-1,3-benzodiazole-2-carboxamide] | 1.01 to 2 | 1.01 to 2 | 2.01 to 5 | 1.01 to 2 | 2.01 to 5 | 2.01 to 5 | B (B indicates 0.5-1.00) | – | – | –
Cc1cc(C(=O)Nc2cccc(C3(Cc4nncn4C)COC3)c2)nc(C2CC2)n1 [Compound 336, 2-cyclopropyl-6-methyl-N-(3-(3-((4-methyl-4H-1,2,4-triazol-3-yl)methyl)oxetan-3-yl)phenyl)pyrimidine-4-carboxamide] | 2.01 to 5 | 1.01 to 2 | > 5 | 2.01 to 5 | > 5 | 2.01 to 5 | D (D indicates ≥1.51) | – | – | –
Cc1n[nH]c(C)c1-c1cc2c(c(C(F)(F)F)c1)CN(c1cccc(C3(Cc4nncn4C)COC3)c1)C2=O [Compound 385, 6-(3,5-dimethyl-1H-pyrazol-4-yl)-2-(3-{3-[(4-methyl-4H-1,2,4-triazol-3-yl)methyl]oxetan-3-yl}phenyl)-4-(trifluoromethyl)-2,3-dihydro-1H-isoindol-1-one] | 1.01 to 2 | < 1 | 2.01 to 5 | 1.01 to 2 | 2.01 to 5 | 1.01 to 2 | C (C indicates 1.01-1.50) | 0.101 to 0.15 | > 0.201 | –
C[C@H](Cc1nncn1C)c1cccc(N2Cc3c(cc(CN4CC(O)C4)cc3C(F)(F)F)C2=O)c1 [Compound 393, (R)-6-((3-hydroxyazetidin-1-yl)methyl)-2-(3-(1-(4-methyl-4H-1,2,4-triazol-3-yl)propan-2-yl)phenyl)-4-(trifluoromethyl)isoindolin-1-one] | 1.01 to 2 | 1.01 to 2 | 2.01 to 5 | 2.01 to 5 | 2.01 to 5 | 2.01 to 5 | B (B indicates 0.5-1.00) | > 0.201 | > 0.201 | –
C[C@H](Cc1nncn1C)c1cccc(N2Cc3c(cc(CN4CC(C)(O)C4)cc3C(F)(F)F)C2=O)c1 [Compound 397] | 2.01 to 5 | 1.01 to 2 | 2.01 to 5 | 2.01 to 5 | > 5 | 2.01 to 5 | B (B indicates 0.5-1.00) | 0.151 to 0.2 | > 0.201 | –
